The text below walks through data of patent US20050004227A1, “Cell growth inhibitor” (priority 2001, published 2005).

Each structure is given as a SMILES string. Read-outs that look alike come from different tables or passages of the source.

What all share (assay type): cell-based
In one data set the target is T1, PepT1 (Homo sapiens, UniProt P46059).
T1 construct: In Caco-2 cells, only PepT1 was expressed; endogenous in cells; host or cells: Caco-2 (human colon cancer cell line)
T1 sequence (P46059 1-708): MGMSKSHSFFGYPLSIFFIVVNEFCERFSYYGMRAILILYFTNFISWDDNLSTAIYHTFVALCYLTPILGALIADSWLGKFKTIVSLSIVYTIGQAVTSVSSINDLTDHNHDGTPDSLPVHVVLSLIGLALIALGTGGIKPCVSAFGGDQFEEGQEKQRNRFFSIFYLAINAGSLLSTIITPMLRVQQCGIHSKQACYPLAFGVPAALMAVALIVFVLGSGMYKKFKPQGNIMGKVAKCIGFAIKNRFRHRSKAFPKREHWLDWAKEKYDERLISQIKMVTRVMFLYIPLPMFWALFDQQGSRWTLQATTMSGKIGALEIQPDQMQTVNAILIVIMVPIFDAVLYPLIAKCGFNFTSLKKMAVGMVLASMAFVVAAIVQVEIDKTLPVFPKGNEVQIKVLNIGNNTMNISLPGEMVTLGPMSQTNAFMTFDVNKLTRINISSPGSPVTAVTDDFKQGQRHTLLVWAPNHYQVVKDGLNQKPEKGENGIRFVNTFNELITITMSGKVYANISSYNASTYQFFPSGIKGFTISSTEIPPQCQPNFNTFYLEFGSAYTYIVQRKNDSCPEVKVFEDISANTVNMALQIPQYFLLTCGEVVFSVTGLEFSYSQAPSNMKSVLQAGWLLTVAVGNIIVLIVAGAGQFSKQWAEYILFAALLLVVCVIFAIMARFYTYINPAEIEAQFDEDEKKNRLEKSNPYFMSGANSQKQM
Put plainly: Inhibition of [14C] glycylsarcosine uptake into Caco-2 cells. How it is done: AT-264's ability to inhibit PepT was examined using a human colon cancer cell line (Caco-2 cells). The results were that the IC50 for uptake of radioactive substrate [^14C] glycylsarcosine into cells was 100 μM (FIG. 1). In Caco-2 cells, only PepT1 was expressed, and PepT1 function was considered to be inhibited by AT-264. The purity of AT-264 used in the present experiment was approximately 50% to 60%, and the actual IC50 was thought to be about 50 μM or so.

Data set [1] deals with human pancreatic cancer cell line AsPC-1. Put plainly: Cell growth inhibition of AsPC-1, MTS assay. The protocol:
AT-264 was dissolved in RPMI1640—10 mM Hepes (hereinafter, abbreviated to ‘the medium’) containing 0.5% ethanol and 0.5% DMSO to prepare 2.5 mM AT-264 solution. Then, this solution was diluted with the medium to prepare 0.625 mM and 0.0625 mM AT-264 solutions.
A 5×10^4 cells/mL solution of human pancreatic cancer cell line AsPC-1 was prepared using a medium containing 50% FBS. This suspension was plated onto a 96-well plate pre-coated with Collagen type I at 40 μL/well (2×10^3 cells), and 160 μL of the AT-264 solution was added. This was cultured for six days in a CO2 incubator (on the second day of culturing, 100 units/mL penicillin and 0.1 mg/mL streptomycin were added). On the sixth day of culturing, the number of viable cells was quantified by MTS assay.
(In general: Formazan colour is commonly taken as a measure of viable cells.)

The next data set addresses T2, human PepT2 (Homo sapiens, UniProt Q16348).
T2 construct: expressed in transfected cells; host or cells: BaF3 (murine bone marrow-derived cell line)
T2 sequence (Q16348 1-729): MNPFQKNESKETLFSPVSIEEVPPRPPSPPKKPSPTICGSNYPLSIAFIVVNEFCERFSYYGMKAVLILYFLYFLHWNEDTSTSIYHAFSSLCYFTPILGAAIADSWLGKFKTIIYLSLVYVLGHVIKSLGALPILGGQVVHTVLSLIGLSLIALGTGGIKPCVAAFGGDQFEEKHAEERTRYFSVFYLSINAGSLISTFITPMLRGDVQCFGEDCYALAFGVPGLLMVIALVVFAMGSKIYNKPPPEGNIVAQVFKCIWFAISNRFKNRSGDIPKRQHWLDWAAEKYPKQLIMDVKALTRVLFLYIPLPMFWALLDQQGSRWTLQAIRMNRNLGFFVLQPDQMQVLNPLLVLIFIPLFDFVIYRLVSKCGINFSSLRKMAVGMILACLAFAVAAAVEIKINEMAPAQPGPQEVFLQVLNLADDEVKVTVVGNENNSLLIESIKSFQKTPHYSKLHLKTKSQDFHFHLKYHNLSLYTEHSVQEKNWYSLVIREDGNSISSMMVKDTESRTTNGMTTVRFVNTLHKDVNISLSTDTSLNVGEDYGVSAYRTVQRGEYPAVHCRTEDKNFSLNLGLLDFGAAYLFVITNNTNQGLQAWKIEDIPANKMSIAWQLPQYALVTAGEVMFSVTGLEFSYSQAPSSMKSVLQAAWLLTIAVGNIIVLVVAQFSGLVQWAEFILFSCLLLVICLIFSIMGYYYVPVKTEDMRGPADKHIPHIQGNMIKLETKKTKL
The experiment in a line: Inhibition of [3H] glycylsarcosine uptake into BaF3/PepT2 cells. The source says: The ability of AT-264 to inhibit PepT2 was examined using a murine bone marrow-derived cell line BaF3 in which human PepT2 is forced to be expressed (hereinafter, abbreviated to BaF3/PepT2).

The subject of data set [2] is human pancreatic cancer cell line BxPC-3. Put plainly: Cell growth inhibition of BxPC-3, MTS assay. How it is done: AT-264 was dissolved in RPMI1640—10 mM Hepes with 100 units/mL penicillin and 0.1 mg/mL streptomycin (hereinafter, abbreviated to ‘the medium’) containing 0.5% ethanol and 0.5% DMSO to prepare 2.5 mM AT-264 solution. Furthermore, this solution was diluted with the medium to prepare 0.625 mM and 0.0625 mM AT-264 solutions.
5×10^4 cells/mL solution of BxPC-3 was prepared using the medium containing 50% FBS. This suspension was plated onto a 96-well plate pre-coated with Collagen type I at 40 μL/well (2×10^3 cells), and 160 μL of AT-264 solution was added. This was cultured for six days in a CO2 incubator, and on the sixth day of culturing, the number of viable cells was quantified by MTS assay.

The term IC50 denotes the point on the concentration scale where inhibition reaches its midpoint. Usually inhibition stands for the change of the read-out against control, counted positive when it falls.

`N=C(N)c1cccc(CC(NS(=O)(=O)NCc2cccc3ccccc23)C(=O)N2CCCCC2C(=O)O)c1` (stereo not drawn) [AT-264]: the half-maximal inhibitory concentration (IC50) at PepT1 (AT-264 purity approximately 50% to 60%, read-out: IC50 for uptake of radioactive substrate [14C] glycylsarcosine into cells) is 100 µM; at PepT1 (estimated from purity of approximately 50% to 60%, read-out: actual IC50 (corrected for purity of AT-264)), approximately 50 µM. Besides, in data set [1] (AsPC-1, 0.5 mM AT-264, six days culture), the Cell growth inhibition result is recorded as “slight”. The inhibition at 2000 µM in data set [1] (Homo sapiens, ASPC1, 144 h, AsPC-1, 2 mM AT-264, six days culture) was approximately 30%; in data set [2] (Homo sapiens, 144 h, BxPC-3, 2 mM AT-264, six days culture) it was approximately 75%. Moreover, the “Morphological changes to AsPC-1 under the microscope” value in data set [1] (in the presence of AT-264) is given as “not observed”. For the same molecule, the “uptake of radioactive substrate [3H] glycylsarcosine into cells” value on human PepT2 was “inhibited in a concentration-dependent manner”. This molecule also had an inhibition at 500 µM in data set [2] (Homo sapiens, 144 h, BxPC-3, 0.5 mM AT-264, six days culture) of approximately 20%. The “Morphological changes to BxPC-3 under the microscope” value in data set [2] (in the presence of AT-264) is given as “not observed”.
